# Results: US20230151003A1, “COMPOUNDS AND METHODS OF USE” (Exelixis, Inc., priority 2020, published 2023)
# Counter-ions that a name gives are not always drawn.
# How the values were obtained:
# AXL = biological target: T1, AXL (Homo sapiens, UniProt P30530); experiment: AXL autophosphorylation ELISA in A-172 cells; type: cell-based; details: Table 3 Cellular Activities, Gas6-stimulated, phospho-AXL ELISA
# T1 construct: endogenous in cells; host or cells: A-172 glioblastoma cells (ATCC #CRL-1620)
# T1 sequence (P30530 26-894): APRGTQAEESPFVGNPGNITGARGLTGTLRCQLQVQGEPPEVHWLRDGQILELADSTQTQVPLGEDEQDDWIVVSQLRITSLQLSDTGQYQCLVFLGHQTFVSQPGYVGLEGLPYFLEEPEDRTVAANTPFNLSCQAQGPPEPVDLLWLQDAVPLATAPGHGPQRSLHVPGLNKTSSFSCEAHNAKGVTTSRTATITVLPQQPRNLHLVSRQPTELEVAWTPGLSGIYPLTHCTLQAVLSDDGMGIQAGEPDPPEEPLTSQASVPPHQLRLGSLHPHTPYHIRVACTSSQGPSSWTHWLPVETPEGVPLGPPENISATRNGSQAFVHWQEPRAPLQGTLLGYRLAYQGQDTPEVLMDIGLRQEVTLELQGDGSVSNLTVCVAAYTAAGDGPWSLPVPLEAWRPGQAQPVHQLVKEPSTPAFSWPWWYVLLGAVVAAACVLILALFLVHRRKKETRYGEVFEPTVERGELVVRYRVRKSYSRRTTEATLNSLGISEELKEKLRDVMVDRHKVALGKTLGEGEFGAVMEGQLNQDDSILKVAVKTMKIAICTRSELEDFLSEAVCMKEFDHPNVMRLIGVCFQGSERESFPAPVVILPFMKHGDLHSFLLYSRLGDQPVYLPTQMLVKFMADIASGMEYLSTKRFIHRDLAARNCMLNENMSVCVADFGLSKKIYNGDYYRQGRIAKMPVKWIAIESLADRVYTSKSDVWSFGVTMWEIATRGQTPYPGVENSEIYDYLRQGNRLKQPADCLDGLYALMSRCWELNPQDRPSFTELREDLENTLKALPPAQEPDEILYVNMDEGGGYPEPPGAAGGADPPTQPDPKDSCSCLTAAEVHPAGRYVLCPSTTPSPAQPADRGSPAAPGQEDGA
# Method in brief: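 A-172 glioblastoma cells serum-starved 24 h, treated 1 h with compounds (8-point dose curve, 0.3% DMSO), then stimulated with 1 μg/mL Gas6 for 15 min. Lysate phospho-AXL quantified by ELISA against a standard; IC50 from 4-parameter logistic fit, normalised to DMSO and reference-inhibitor controls.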
# KDR = KDR (Homo sapiens, UniProt P35968); experiment: KDR autophosphorylation ELISA in HUVEC cells; type: cell-based; set-up: endogenous in cells; host or cells: HUVEC (Lonza #C2519A); details: Table 3 Cellular Activities, VEGF165-stimulated, phospho-KDR ELISA
# Sequence of KDR (P35968 20-1356): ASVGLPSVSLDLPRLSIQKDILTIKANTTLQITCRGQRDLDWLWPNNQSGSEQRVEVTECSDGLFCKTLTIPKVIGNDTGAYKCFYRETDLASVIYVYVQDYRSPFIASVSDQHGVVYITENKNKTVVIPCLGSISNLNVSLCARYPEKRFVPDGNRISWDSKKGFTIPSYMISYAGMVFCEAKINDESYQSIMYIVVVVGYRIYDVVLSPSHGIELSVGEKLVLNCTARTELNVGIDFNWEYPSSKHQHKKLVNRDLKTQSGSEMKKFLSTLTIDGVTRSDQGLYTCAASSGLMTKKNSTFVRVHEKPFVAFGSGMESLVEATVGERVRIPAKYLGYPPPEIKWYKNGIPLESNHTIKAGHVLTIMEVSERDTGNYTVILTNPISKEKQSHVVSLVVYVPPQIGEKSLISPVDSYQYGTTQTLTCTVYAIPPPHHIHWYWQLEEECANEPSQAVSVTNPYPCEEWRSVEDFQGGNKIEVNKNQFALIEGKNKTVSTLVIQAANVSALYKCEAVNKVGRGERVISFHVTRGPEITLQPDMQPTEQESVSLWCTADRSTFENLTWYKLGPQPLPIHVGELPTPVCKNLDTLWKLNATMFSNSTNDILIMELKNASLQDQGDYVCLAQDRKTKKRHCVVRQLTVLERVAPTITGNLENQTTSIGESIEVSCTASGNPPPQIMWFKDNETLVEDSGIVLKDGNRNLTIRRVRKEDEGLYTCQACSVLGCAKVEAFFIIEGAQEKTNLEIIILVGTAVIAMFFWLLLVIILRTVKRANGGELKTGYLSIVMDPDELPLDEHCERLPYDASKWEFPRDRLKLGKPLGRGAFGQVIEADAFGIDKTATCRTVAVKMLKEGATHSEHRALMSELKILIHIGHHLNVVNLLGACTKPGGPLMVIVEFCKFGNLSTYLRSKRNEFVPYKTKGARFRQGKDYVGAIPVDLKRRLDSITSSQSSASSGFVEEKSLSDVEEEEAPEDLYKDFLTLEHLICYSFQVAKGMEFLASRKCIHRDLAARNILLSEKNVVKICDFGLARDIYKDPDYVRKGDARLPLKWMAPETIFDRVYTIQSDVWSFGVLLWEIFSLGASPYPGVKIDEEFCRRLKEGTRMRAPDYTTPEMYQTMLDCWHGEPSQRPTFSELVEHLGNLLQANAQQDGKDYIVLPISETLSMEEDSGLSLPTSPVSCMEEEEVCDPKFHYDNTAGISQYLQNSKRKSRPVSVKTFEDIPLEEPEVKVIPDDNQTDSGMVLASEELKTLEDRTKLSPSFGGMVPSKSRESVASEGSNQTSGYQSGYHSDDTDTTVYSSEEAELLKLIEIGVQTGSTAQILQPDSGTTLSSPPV
# Method in brief: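 Inhibition of VEGF165-induced KDR phosphorylation was determined in serum-starved HUVEC after 1 h compound pretreatment and 5 min stimulation with 100 ng/mL VEGF165. Lysate phospho-KDR was measured by ELISA; IC50 values came from a 4-parameter logistic fit of 8-point curves.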
Structure (SMILES),IC50 (AXL) [nM],IC50 (KDR) [nM]
"COc1cc2nccc(Oc3ccc(NC(=O)c4c(C)n(C)c(C)c(-c5ccco5)c4=O)cc3F)c2nc1OC [Compound 160, N-[4-[(6,7-Dimethoxy-1,5-naphthyridin-4-yl)oxy]-3-fluorophenyl]-5-(furan-2-yl)-1,2,6-trimethyl-4-oxopyridine-3-carboxamide]",≤ 100,100 to 300
"COc1cc2nccc(Oc3ccc(NC(=O)c4c(C)n(C)c(C)c(-c5cccs5)c4=O)cc3F)c2nc1OC [Compound 168, N-[4-[(6,7-Dimethoxy-1,5-naphthyridin-4-yl)oxy]-3-fluorophenyl]-1,2,6-trimethyl-4-oxo-5-thiophen-2-ylpyridine-3-carboxamide]",≤ 100,≤ 100
"COc1cc2nccc(Oc3ccc(NC(=O)c4c(C)nc(C)c(-c5ccc(C)o5)c4O)cc3F)c2nc1OC [Compound 110, N-[4-[(6,7-Dimethoxy-1,5-naphthyridin-4-yl)oxy]-3-fluoro-phenyl]-4-hydroxy-2,6-dimethyl-5-(5-methyl-2-furyl)pyridine-3-carboxamide]",≤ 100,≤ 100
COc1cc2nccc(Oc3ccc(NC(=O)c4c(C)nc(C)c(-c5cccs5)c4O)cc3F)c2nc1OC [Compound 107],≤ 100,≤ 100
"COc1cc2nccc(Oc3ccc(NC(=O)c4cn(CCF)c(C)c(-c5ccsc5)c4=O)cc3F)c2nc1OC [Compound 332, N-[4-[(6,7-Dimethoxy-1,5-naphthyridin-4-yl)oxy]-3-fluorophenyl]-1-(2-fluoroethyl)-6-methyl-4-oxo-5-thiophen-3-ylpyridine-3-carboxamide]",≤ 100,≤ 100
"COc1cnc2c(Oc3ccc(NC(=O)c4cnc(C)c(-c5cc(C)cs5)c4O)cc3F)ccnc2c1 [Compound 102, N-[3-Fluoro-4-[(7-methoxy-1,5-naphthyridin-4-yl)oxy]phenyl]-4-hydroxy-6-methyl-5-(4-methyl-2-thienyl) pyridine-3-carboxamide]",≤ 100,≤ 100
"COc1cc2nccc(Oc3ccc(NC(=O)c4cnc(C)c(-c5ccsc5)c4O)cc3F)c2nc1OC [Compound 93, N-[4-[(6,7-Dimethoxy-1,5-naphthyridin-4-yl)oxy]-3-fluoro-phenyl]-4-hydroxy-6-methyl-5-(3-thienyl)pyridine-3-carboxamide]",≤ 100,≤ 100
"COc1cnc2c(Oc3ccc(NC(=O)c4cn(CCF)c(C)c(-c5ccoc5)c4=O)cc3F)ccnc2c1 [Compound 334, 1-(2-Fluoroethyl)-N-[3-fluoro-4-[(7-methoxy-1,5-naphthyridin-4-yl)oxy]phenyl]-5-(furan-3-yl)-6-methyl-4-oxopyridine-3-carboxamide]",≤ 100,300 to 1000
"COc1cc2nccc(Oc3ccc(NC(=O)c4c(C)ncc(-c5sccc5C)c4O)cc3F)c2nc1OC [Compound 126, N-[4-[(6,7-Dimethoxy-1,5-naphthyridin-4-yl)oxy]-3-fluorophenyl]-4-hydroxy-2-methyl-5-(3-methylthiophen-2-yl)pyridine-3-carboxamide]",≤ 100,≤ 100
"COc1cc2nccc(Oc3ccc(NC(=O)c4c(C)ncc(-c5ccco5)c4O)cc3F)c2nc1OC [Compound 119, N-[4-[(6,7-Dimethoxy-1,5-naphthyridin-4-yl)oxy]-3-fluorophenyl]-5-(furan-2-yl)-4-hydroxy-2-methylpyridine-3-carboxamide]",≤ 100,≤ 100
"COc1cc2nccc(Oc3ccc(NC(=O)c4c(C)nc(C)c(-c5ccc(C)s5)c4O)cc3F)c2nc1OC [Compound 111, N-[4-[(6,7-Dimethoxy-1,5-naphthyridin-4-yl)oxy]-3-fluoro-phenyl]-4-hydroxy-2,6-dimethyl-5-(5-methyl-2-thienyl)pyridine-3-carboxamide]",≤ 100,≤ 100
"COc1cc2nccc(Oc3ccc(NC(=O)c4c(C)nc(C)c(-c5cc(C)nn5C)c4O)cc3F)c2nc1OC [Compound 109, N-[4-[(6,7-Dimethoxy-1,5-naphthyridin-4-yl)oxy]-3-fluoro-phenyl]-5-(2,5-dimethylpyrazol-3-yl)-4-hydroxy-2,6-dimethyl-pyridine-3-carboxamide]",≤ 100,≤ 100
"C=Cc1ccc(-c2c(C)ncc(C(=O)Nc3ccc(Oc4ccnc5cc(OC)c(OC)nc45)c(F)c3)c2O)o1 [Compound 151, N-[4-[(6,7-Dimethoxy-1,5-naphthyridin-4-yl)oxy]-3-fluorophenyl]-5-(5-ethenylfuran-2-yl)-4-hydroxy-6-methylpyridine-3-carboxamide]",≤ 100,≤ 100

# Now from value to molecule:
IC50 (AXL) [nM],IC50 (KDR) [nM],Structure (SMILES)
≤ 100,≤ 100,"COc1cc2nccc(Oc3ccc(NC(=O)c4cnc(C)c(-c5cnoc5)c4O)cc3F)c2nc1OC [Compound 140, N-[4-[(6,7-Dimethoxy-1,5-naphthyridin-4-yl)oxy]-3-fluorophenyl]-4-hydroxy-6-methyl-5-(1,2-oxazol-4-yl)pyridine-3-carboxamide]"
≤ 100,≤ 100,"COc1cnc2c(Oc3ccc(NC(=O)c4cnc(C)c(-c5ccsc5)c4O)cc3F)ccnc2c1 [Compound 98, N-[3-Fluoro-4-[(7-methoxy-1,5-naphthyridin-4-yl)oxy]phenyl]-4-hydroxy-6-methyl-5-(3-thienyl)pyridine-3-carboxamide]"
≤ 100,≤ 100,"COc1cc2nccc(Oc3ccc(NC(=O)c4cnc(C)c(-c5ccc(C)o5)c4O)cc3F)c2nc1OC [Compound 92, N-[4-[(6,7-Dimethoxy-1,5-naphthyridin-4-yl)oxy]-3-fluoro-phenyl]-4-hydroxy-6-methyl-5-(5-methyl-2-furyl)pyridine-3-carboxamide]"
≤ 100,≤ 100,"COc1cc2nccc(Oc3ccc(NC(=O)c4cnc(C)c(-c5cscn5)c4O)cc3F)c2nc1OC [Compound 142, N-[4-[(6,7-Dimethoxy-1,5-naphthyridin-4-yl)oxy]-3-fluorophenyl]-4-hydroxy-6-methyl-5-(1,3-thiazol-4-yl)pyridine-3-carboxamide]"
≤ 100,≤ 100,"COc1cc2nccc(Oc3ccc(NC(=O)c4cnc(C)c(-c5ccc(C6CC6)o5)c4O)cc3F)c2nc1OC [Compound 155A, 5-(5-Cyclopropylfuran-2-yl)-N-[4-[(6,7-dimethoxy-1,5-naphthyridin-4-yl)oxy]-3-fluorophenyl]-4-hydroxy-6-methylpyridine-3-carboxamide hydrochloride]"
≤ 100,≤ 100,"COc1cc2nccc(Oc3ccc(NC(=O)c4cnc(C)c(-c5ccco5)c4O)cc3F)c2nc1OC [Compound 89, N-[4-[(6,7-Dimethoxy-1,5-naphthyridin-4-yl)oxy]-3-fluorophenyl]-5-(furan-2-yl)-4-hydroxy-6-methylpyridine-3-carboxamide]"
≤ 100,≤ 100,"COc1cnc2c(Oc3ccc(NC(=O)c4cnc(C)c(-c5ccc(C)s5)c4O)cc3F)ccnc2c1 [Compound 101, N-[3-Fluoro-4-[(7-methoxy-1,5-naphthyridin-4-yl)oxy]phenyl]-4-hydroxy-6-methyl-5-(5-methyl-2-thienyl) pyridine-3-carboxamide]"
≤ 100,≤ 100,"COCc1nc(C)c(-c2ccccn2)c(O)c1C(=O)Nc1ccc(Oc2ccnc3cc(OC)c(OC)nc23)c(F)c1 [Compound 195, N-[4-[(6,7-Dimethoxy-1,5-naphthyridin-4-yl)oxy]-3-fluorophenyl]-4-hydroxy-2-(methoxymethyl)-6-methyl-5-pyridin-2-ylpyridine-3-carboxamide]"
≤ 100,≤ 100,"COc1cc2nccc(Oc3ccc(NC(=O)c4c(C)nc(C)c(-c5cc(C)cs5)c4O)cc3F)c2nc1OC [Compound 137, N-[4-[(6,7-Dimethoxy-1,5-naphthyridin-4-yl)oxy]-3-fluorophenyl]-4-hydroxy-2,6-dimethyl-5-(4-methylthiophen-2-yl)pyridine-3-carboxamide]"
